Measurements as given in patent publication US20250313563A1, “GLYCOGEN SYNTHASE KINASE 3 INHIBITORS AND USES THEREOF” (The Broad Institute, Inc., priority 2022, published 2025).
pIC50: −log10 of the molar value. Where two headings read alike, the source gives them in different places.

Tests used:
[1] = biological target: GSK3b (GST-full length GSK3b) (Homo sapiens (Human), UniProt P49841); test: GSK3b TR-FRET kinase assay; type: biochemical
In short: (§1)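 In this time-resolved FRET format, kinase reactions contained 200 nM biotinylated, S645-phosphorylated glycogen synthase 631-650 peptide and either isoform-specific ATP (2 μM GSK3b, 4 μM GSK3α) or 1 mM ATP. They were quenched with EDTA after 100 min at ambient temperature. Inhibition curves gave IC50 values.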

[2] = biological target: GSK3α (GST-full length GSK3α) (Homo sapiens (Human), UniProt P49840); test: GSK3α TR-FRET kinase assay; type: biochemical
In short: as §1

[3] = 1 nM GSK3b, 2 μM ATP, 30 minute preincubation, Table 16, read-out: GSK3-B TR-FRET BIOCHEMICAL (TR-FRET)
[4] = 1 nM GSK3α, 4 μM ATP, 30 minute preincubation, Table 16, read-out: GSK3-A TR-FRET BIOCHEMICAL (TR-FRET)
[5] = GSK3-B (TR-FRET 1 mM ATP), GMean, IC50, 1 mM ATP, geometric mean
[6] = GSK3-A (TR-FRET 1 mM ATP), GMean, IC50, 1 mM ATP, geometric mean
[7] = 1 nM GSK3b, 2 μM ATP, 30 minute preincubation, geometric mean, read-out: GSK3-B TR-FRET BIOCHEMICAL (TR-FRET), GMean, IC50
[8] = read-out: GSK3-B (TR-FRET 1 mM ATP), GMean, IC50, 1 mM ATP, geometric mean
[9] = 1 nM GSK3α, 4 μM ATP, 30 minute preincubation, geometric mean, read-out: GSK3-A TR-FRET BIOCHEMICAL (TR-FRET), GMean, IC50
[10] = read-out: GSK3-A (TR-FRET 1 mM ATP), GMean, IC50, 1 mM ATP, geometric mean
[11] = 1 nM GSK3b, 2 μM ATP, 30 minute preincubation, read-out: GSK3-B TR-FRET BIOCHEMICAL (TR-FRET), IC50
[12] = 1 nM GSK3α, 4 μM ATP, 30 minute preincubation, read-out: GSK3-A TR-FRET BIOCHEMICAL (TR-FRET), IC50

Chain of GSK3b (GST-full length GSK3b) (P49841 whole entry, canonical isoform): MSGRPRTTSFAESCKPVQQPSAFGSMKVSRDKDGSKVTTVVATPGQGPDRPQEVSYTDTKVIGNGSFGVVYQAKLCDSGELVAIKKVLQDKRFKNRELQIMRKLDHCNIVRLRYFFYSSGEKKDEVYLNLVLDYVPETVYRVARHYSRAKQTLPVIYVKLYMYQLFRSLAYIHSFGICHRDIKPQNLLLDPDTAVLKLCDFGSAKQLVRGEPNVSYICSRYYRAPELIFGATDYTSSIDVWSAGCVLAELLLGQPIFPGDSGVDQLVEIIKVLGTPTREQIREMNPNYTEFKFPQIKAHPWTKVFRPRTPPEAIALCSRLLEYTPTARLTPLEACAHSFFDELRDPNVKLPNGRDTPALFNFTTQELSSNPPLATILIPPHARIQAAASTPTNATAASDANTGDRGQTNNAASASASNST
Chain of GSK3α (GST-full length GSK3α) (P49840 whole entry): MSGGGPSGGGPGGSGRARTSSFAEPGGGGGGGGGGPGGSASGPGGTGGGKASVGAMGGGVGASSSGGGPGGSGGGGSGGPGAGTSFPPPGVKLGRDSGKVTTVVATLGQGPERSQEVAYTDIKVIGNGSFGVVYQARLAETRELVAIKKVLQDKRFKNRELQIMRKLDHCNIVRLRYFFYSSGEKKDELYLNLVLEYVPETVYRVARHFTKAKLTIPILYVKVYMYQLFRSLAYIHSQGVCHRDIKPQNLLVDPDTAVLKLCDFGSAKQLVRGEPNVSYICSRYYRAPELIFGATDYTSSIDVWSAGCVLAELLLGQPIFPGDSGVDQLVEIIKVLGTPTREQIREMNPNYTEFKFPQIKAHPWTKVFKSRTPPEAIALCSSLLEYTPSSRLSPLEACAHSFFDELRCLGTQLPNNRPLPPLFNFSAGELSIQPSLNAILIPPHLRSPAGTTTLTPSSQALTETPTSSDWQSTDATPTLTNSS

pIC50 [1, 7]	pIC50 [2, 9]	SMILES	further results
		CCC1(c2cccc(-c3ccnc(OC)n3)c2)C2=C(CC(C)(C)CC2=O)Nc2n[nH]cc21 (centres unmarked) [Compound 948092]	pIC50 [1, 3]: ≥ 7.00; pIC50 [2, 4]: ≥ 7.00
		CC1(C)CC(=O)C2=C(C1)Nc1n[nH]cc1C21CCN(S(=O)(=O)c2ccc(F)c(Cl)c2)CC1 [Compound 948117]	pIC50 [1, 3]: ≥ 7.00; pIC50 [2, 4]: ≥ 7.00
		CC1(C)CC(=O)C2=C(C1)Nc1n[nH]cc1C21CCN(S(=O)(=O)c2cccc(Cl)c2F)CC1 [Compound 948118]	pIC50 [1, 3]: ≥ 7.00; pIC50 [1, 5]: 6.00 to 7.00; pIC50 [2, 4]: ≥ 7.00; pIC50 [2, 6]: ≥ 7.00
		CC1(C)CC(=O)C2=C(C1)Nc1n[nH]cc1C21CCN(S(=O)(=O)c2ccc(F)c(F)c2)CC1 [Compound 948119]	pIC50 [1, 3]: ≥ 7.00; pIC50 [2, 4]: ≥ 7.00
		CC1(C)CC(=O)C2=C(C1)Nc1n[nH]cc1C21CCN(S(=O)(=O)c2cnc3cccnn23)CC1 [Compound 948120]	pIC50 [1, 3]: ≥ 7.00; pIC50 [1, 5]: 5.30 to 6.00; pIC50 [2, 4]: ≥ 7.00; pIC50 [2, 6]: 6.00 to 7.00
		CC1(C)CC(=O)C2=C(C1)Nc1n[nH]cc1C21CCN(S(=O)(=O)c2cc(F)ccc2F)CC1 [Compound 948121]	pIC50 [1, 3]: ≥ 7.00; pIC50 [1, 5]: 6.00 to 7.00; pIC50 [2, 4]: ≥ 7.00; pIC50 [2, 6]: 6.00 to 7.00
		CC1(C)CC(=O)C2=C(C1)Nc1n[nH]cc1C21CCN(S(=O)(=O)c2cc(Cl)ccc2Cl)CC1 [Compound 948122]	pIC50 [1, 3]: 6.00 to 7.00; pIC50 [2, 4]: ≥ 7.00
		CC1(C)CC(=O)C2=C(C1)Nc1n[nH]cc1C21CCN(S(=O)(=O)c2cnn(CC(F)(F)F)c2)CC1 [Compound 948123]	pIC50 [1, 3]: ≥ 7.00; pIC50 [1, 5]: 6.00 to 7.00; pIC50 [2, 4]: ≥ 7.00; pIC50 [2, 6]: 6.00 to 7.00
≥ 7.00	≥ 7.00	CCC1(c2cccc(-c3ccncc3Cl)c2)C2=C(CC(C)(C)NC2=O)Nc2n[nH]cc21 (centres unmarked) [Compound 948142]	pIC50 [1, 8]: 6.00 to 7.00; pIC50 [2, 10]: ≥ 7.00
6.00 to 7.00	≥ 7.00	CC[C@]1(c2cccc(-c3ccnc4nc(C)ccc34)c2)C2=C(CC(C)(C)NC2=O)Nc2n[nH]cc21 [Compound 948143]	
< 5.30	6.00 to 7.00	CCC1(c2cccc(-c3c(F)cncc3OC)c2)C2=C(CC(C)(C)NC2=O)Nc2n[nH]cc21 (centres unmarked) [Compound 948145]	
< 5.30	5.30 to 6.00	CC[C@@]1(c2cccc(-c3ccnc(C)c3)c2)C2=C(C[C@@]3(CCCOC3)NC2=O)Nc2n[nH]cc21 [Compound 948146]	
≥ 7.00	≥ 7.00	CCC1(c2cccc(-c3ccncc3C)c2)C2=C(CC(C)(COC)NC2=O)Nc2n[nH]cc21 (centres unmarked) [Compound 948147]	
< 5.30	5.30 to 6.00	CCC1(c2cccc(-c3ccnc(C)c3)c2)C2=C(CC3(CCOC3)NC2=O)Nc2n[nH]cc21 (centres unmarked) [Compound 948148]	
6.00 to 7.00	≥ 7.00	CC[C@]1(c2cccc(-c3ccnc(C)c3)c2)C2=C(C[C@]3(CCOC3)NC2=O)Nc2n[nH]cc21 [Compound 948149]	
< 5.30	6.00 to 7.00	CCC1(c2cccc(-c3ccnc4nc(C)ccc34)c2)C2=C(CC(C)(C)NC2=O)Nc2n[nH]cc21 (centres unmarked) [Compound 948151]	
6.00 to 7.00	≥ 7.00	CCC1(c2cccc(-c3ccnc(C)c3)c2)C2=C(CC3(CCCOC3)NC2=O)Nc2n[nH]cc21 (centres unmarked) [Compound 948152]	
< 5.30	< 5.30	CCC1(c2cccc(-c3ccnc(C)c3)c2)C2=C(CC3(CCCOC3)NC2=O)Nc2n[nH]cc21 (centres unmarked) [Compound 948153]	
		CC1(C)CC(=O)C2=C(C1)Nc1n[nH]cc1[C@]21COC2(CN(C(=O)C(F)(F)F)C2)C1 [Compound 948156]	pIC50 [1, 11]: 6.00 to 7.00; pIC50 [2, 12]: ≥ 7.00
≥ 7.00	≥ 7.00	CCC1(c2cccc(N(C)c3ncccn3)c2)C2=C(CC(C)(C)NC2=O)Nc2n[nH]c(C(F)(F)F)c21 (centres unmarked) [Compound 948176]	

pIC50 [1, 7]	pIC50 [2, 9]	SMILES	further results
6.00 to 7.00	≥ 7.00	CCC1(c2cccc(S(=O)(=O)CC3CC3)c2)C2=C(CC(C)(C)NC2=O)Nc2n[nH]cc21 (centres unmarked) [Compound 948177]	
≥ 7.00	≥ 7.00	CCC1(c2cccc(S(=O)(=O)CC3CC3)c2)C2=C(CC(C)(C)NC2=O)Nc2n[nH]c(C(F)(F)F)c21 (centres unmarked) [Compound 948179]	
≥ 7.00	≥ 7.00	CCC1(c2cccc(-c3cncn3C)c2)C2=C(CC(C)(C)NC2=O)Nc2n[nH]c(C(F)(F)F)c21 (centres unmarked) [Compound 948180]	
6.00 to 7.00	6.00 to 7.00	CC[C@]1(c2cccc(-c3ccnc(C)c3C)c2)C2=C(CC(C)(C)NC2=O)Nc2n[nH]c(C(F)(F)F)c21 [Compound 948181]	
6.00 to 7.00	≥ 7.00	CC[C@]1(c2cccc(-c3ccnc(C)c3C)c2)C2=C(CC(C)(C)NC2=O)Nc2n[nH]cc21 [Compound 948184]	pIC50 [1, 8]: 5.30 to 6.00; pIC50 [2, 10]: 6.00 to 7.00
≥ 7.00	≥ 7.00	CCC1(c2cccc(-c3ccnc(C)c3C)c2)C2=C(CC(C)(C)NC2=O)Nc2n[nH]c(C(F)(F)F)c21 (centres unmarked) [Compound 948185]	pIC50 [1, 8]: ≥ 7.00; pIC50 [2, 10]: ≥ 7.00
≥ 7.00	≥ 7.00	CCC1(c2cccc(-c3ccnc(C)c3C)c2)C2=C(CC(C)(C)NC2=O)Nc2n[nH]c(C)c21 (centres unmarked) [Compound 948187]	
		CCC1(c2cccc(C(F)(F)F)c2)C2=C(Nc3n[nH]cc31)c1ccccc1C2=O (centres unmarked) [Compound 948205]	pIC50 ([1]; 1 nM GSK3b, 2 μM ATP, 30 minute preincubation, Table 16, read-out: GSK3-B TR-FRET BIOCHEMICAL (TR-FRET), IC50): ≥ 7.00; pIC50 [1, 5]: 6.00 to 7.00; pIC50 ([2]; 1 nM GSK3α, 4 μM ATP, 30 minute preincubation, Table 16, read-out: GSK3-A TR-FRET BIOCHEMICAL (TR-FRET), IC50): ≥ 7.00; pIC50 [2, 6]: 6.00 to 7.00
		Cc1cc(C)cc(C(=O)N2CC3(C2)CC2(CO3)C3=C(CC(C)(C)CC3=O)Nc3n[nH]cc32)c1 (centres unmarked) [Compound 948222]	pIC50 [1, 11]: 5.30 to 6.00; pIC50 [2, 12]: 6.00 to 7.00
		Cc1cc(C)cc(C(=O)N2CC3(C2)C[C@]2(CO3)C3=C(CC(C)(C)CC3=O)Nc3n[nH]cc32)c1 [Compound 948223]	pIC50 [1, 11]: ≥ 7.00; pIC50 [1, 8]: 6.00 to 7.00; pIC50 [2, 12]: ≥ 7.00; pIC50 [2, 10]: 6.00 to 7.00
6.00 to 7.00	≥ 7.00	CC[C@@]1(c2cccc(C(F)(F)F)c2)C2=C(CCN(c3ccc(F)cc3)C2=O)Nc2n[nH]cc21 [Compound 948224]	
< 5.30	5.30 to 6.00	CC[C@]1(c2cccc(C(F)(F)F)c2)C2=C(CCN(c3ccc(F)cc3)C2=O)Nc2n[nH]cc21 [Compound 948225]	
< 5.30	5.30 to 6.00	CC[C@]1(c2cccc(C(F)(F)F)c2)C2=C(CCN(c3ccc(OC)cc3)C2=O)Nc2n[nH]cc21 [Compound 948227]	
6.00 to 7.00	≥ 7.00	CCC1(c2cccc(C(F)(F)F)c2)C2=C(CCN(c3ccc(C)cc3)C2=O)Nc2n[nH]cc21 (centres unmarked) [Compound 948241]	
≥ 7.00	≥ 7.00	CCC1(c2cccc(-c3ccnc(C)c3F)c2)C2=C(CC(C)(C)NC2=O)Nc2n[nH]c(C(F)(F)F)c21 (centres unmarked) [Compound 948297]	
		CC1(C)CC(=O)C2=C(C1)Nc1n[nH]cc1C21CN(c2ccccc2)C1 [Compound 948298]	pIC50 [1, 3]: ≥ 7.00; pIC50 [2, 4]: ≥ 7.00
5.30 to 6.00	≥ 7.00	CCC1(c2cccc(-c3ccnc(C)c3)c2)C2=C(CC(C)(C)NC2=O)Nc2n[nH]c(F)c21 (centres unmarked) [Compound 948299]	
≥ 7.00	≥ 7.00	CCC1(c2cccc(-c3cn(C)nc3C)c2)C2=C(CC(C)(C)NC2=O)Nc2n[nH]c(F)c21 (centres unmarked) [Compound 948301]	
6.00 to 7.00	≥ 7.00	CCC1(c2cccc(-c3ccnc(C)c3)c2)C2=C(CC(C)(C)N(C)C2=O)Nc2n[nH]cc21 (centres unmarked) [Compound 948302]	
≥ 7.00	≥ 7.00	CCC1(c2cccc(S(=O)(=O)C3CC3)c2)C2=C(CC(C)(C)N(C)C2=O)Nc2n[nH]cc21 (centres unmarked) [Compound 948303]	
